In patent US9714236B2, “Compounds and methods for inhibiting JAK” (AstraZeneca AB, priority 2015, dated 2017):
pIC50: −log10 of the molar value.

What was measured:
Assay type in all cases: biochemical
[1] = molecular target: recombinant JAK1 (amino acids 866-1154) (Homo sapiens (Human), UniProt P23458); assay: Enzyme inhibition studies, JAK1 (peptide phosphorylation, Caliper LC3000); conditions: ATP concentration not given (assayed at ATP Km 55 μM and at 5 mM)
Procedure: (§1) Enzyme inhibition studies were performed using recombinant JAK1 (amino acids 866-1154, Life Technologies, #PV4774, Carlsbad, Calif.), JAK2 (amino acids 831-1132), or JAK3 (amino acids 781-1124) under buffer conditions of 50 mM HEPES pH 7.3, 1 mM DTT, 0.01% Tween® 20, 50 μg/mL BSA, and 10 mM MgCl2. JAK enzyme was expressed as an N-terminal GST fusion in insect cells and purified by glutathione-affinity and size-exclusion chromatographies. […] Phosphorylated and unphosphorylated peptides were separated and quantified by a Caliper LC3000 system (Caliper Life Sciences, MA) for calculating percent inhibition.

[2] = molecular target: recombinant JAK3 (amino acids 781-1124) (Homo sapiens (Human), UniProt P52333); assay: Enzyme inhibition studies, JAK3 (peptide phosphorylation, Caliper LC3000); conditions: ATP concentration of the tabulated values not stated (assayed at ATP Km 3 μM and at 5 mM)
Sequence of recombinant JAK3 (amino acids 781-1124) (P52333 781-1124): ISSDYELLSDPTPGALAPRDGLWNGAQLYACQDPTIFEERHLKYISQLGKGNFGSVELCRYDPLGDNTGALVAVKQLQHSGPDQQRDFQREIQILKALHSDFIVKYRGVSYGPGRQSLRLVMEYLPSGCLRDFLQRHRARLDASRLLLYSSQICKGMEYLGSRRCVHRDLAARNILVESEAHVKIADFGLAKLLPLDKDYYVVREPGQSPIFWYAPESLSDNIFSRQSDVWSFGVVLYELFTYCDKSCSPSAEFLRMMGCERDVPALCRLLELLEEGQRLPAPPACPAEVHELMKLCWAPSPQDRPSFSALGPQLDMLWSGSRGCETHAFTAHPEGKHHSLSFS
Procedure: as §1

[3] = molecular target: recombinant JAK2 (amino acids 831-1132) (Homo sapiens (Human), UniProt O60674); assay: Enzyme inhibition studies, JAK2 (peptide phosphorylation, Caliper LC3000); conditions: ATP concentration of the tabulated values not stated (assayed at ATP Km 15 μM and at 5 mM)
Sequence of recombinant JAK2 (amino acids 831-1132) (O60674 831-1132): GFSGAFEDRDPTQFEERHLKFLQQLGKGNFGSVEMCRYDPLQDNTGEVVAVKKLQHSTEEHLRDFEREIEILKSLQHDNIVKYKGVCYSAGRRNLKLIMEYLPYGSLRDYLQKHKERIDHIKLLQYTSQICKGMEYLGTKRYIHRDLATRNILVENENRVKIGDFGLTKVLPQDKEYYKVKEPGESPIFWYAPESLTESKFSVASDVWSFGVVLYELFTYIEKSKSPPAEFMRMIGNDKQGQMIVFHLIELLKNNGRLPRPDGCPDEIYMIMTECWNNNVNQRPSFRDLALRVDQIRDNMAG
Procedure: as §1

Sequence of recombinant JAK1 (amino acids 866-1154) (P23458 866-1154): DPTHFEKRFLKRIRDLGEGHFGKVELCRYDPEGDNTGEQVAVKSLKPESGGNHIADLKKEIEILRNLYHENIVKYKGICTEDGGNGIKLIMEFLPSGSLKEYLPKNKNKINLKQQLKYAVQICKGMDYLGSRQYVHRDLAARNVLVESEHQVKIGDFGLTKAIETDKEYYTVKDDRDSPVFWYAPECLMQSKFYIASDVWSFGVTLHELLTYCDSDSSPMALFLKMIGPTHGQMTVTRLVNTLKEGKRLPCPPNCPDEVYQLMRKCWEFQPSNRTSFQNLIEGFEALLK

| pIC50 [1] | pIC50 [2] | pIC50 [3] | Compound |
| --- | --- | --- | --- |
| 6.97 | < 4.52 | 4.68 | Cc1cnc(Nc2cn(C)nc2C)nc1-c1c[nH]c2c(NC(=O)[C@H](C)N3CCN(C)CC3)cccc12 [Example 42, (2S)-N-(3-{2-[(1,3-dimethyl-1H-pyrazol-4-yl)amino]-5-methylpyrimidin-4-yl}-1H-indol-7-yl)-2-(4-methylpiperazin-1-yl)propanamide] |
| 7.10 | < 4.52 | 4.68 | CC[C@@H](C(=O)Nc1cccc2c(-c3nc(Nc4cn(C)nc4OC)ncc3C)c[nH]c12)N1CCN(C)CC1 [Example 43, (2S)-N-(3-{2-[(3-Methoxy-1-methyl-1H-pyrazol-4-yl)amino]-5-methylpyrimidin-4-yl}-1H-indol-7-yl)-2-(4-methylpiperazin-1-yl)butanamide] |
| > 8.40 | < 4.52 | 5.71 | CC[C@H](C(=O)Nc1cccc2c(-c3nc(Nc4cn(C)nc4OC)ncc3C)c[nH]c12)N1CCN(C)CC1 [Example 44, (2R)-N-(3-{2-[(3-Methoxy-1-methyl-1H-pyrazol-4-yl)amino]-5-methylpyrimidin-4-yl}-1H-indol-7-yl)-2-(4-methylpiperazin-1-yl)butanamide] |
| > 8.52 | < 4.52 | 6.10 | COC[C@H](C(=O)Nc1cccc2c(-c3nc(Nc4cn(C)nc4OC)ncc3C)c[nH]c12)N1CCN(C)CC1 [Example 45, (2R)-3-methoxy-N-(3-{2-[(3-methoxy-1-methyl-1H-pyrazol-4-yl)amino]-5-methylpyrimidin-4-yl}-1H-indol-7-yl)-2-(4-methylpiperazin-1-yl)propanamide] |
| 6.01 | < 4.52 | < 4.52 | COC[C@@H](C(=O)Nc1cccc2c(-c3nc(Nc4cn(C)nc4OC)ncc3C)c[nH]c12)N1CCN(C)CC1 [Example 46, (2S)-3-methoxy-N-(3-{2-[(3-methoxy-1-methyl-1H-pyrazol-4-yl)amino]-5-methylpyrimidin-4-yl}-1H-indol-7-yl)-2-(4-methylpiperazin-1-yl)propanamide] |
| 7.89 | < 4.52 | 5.16 | CC[C@H](C(=O)Nc1cccc2c(-c3ccnc(Nc4cn(C)nc4OC)n3)c[nH]c12)N1CCN(C)CC1 [Example 47, (2R)-N-(3-{2-[(3-Methoxy-1-methyl-1H-pyrazol-4-yl)amino]pyrimidin-4-yl}-1H-indol-7-yl)-2-(4-methylpiperazin-1-yl)butanamide] |
| 5.92 | < 4.52 | < 4.52 | CC[C@@H](C(=O)Nc1cccc2c(-c3ccnc(Nc4cn(C)nc4OC)n3)c[nH]c12)N1CCN(C)CC1 [Example 48, (2S)-N-(3-{2-[(3-Methoxy-1-methyl-1H-pyrazol-4-yl)amino]pyrimidin-4-yl}-1H-indol-7-yl)-2-(4-methylpiperazin-1-yl)butanamide] |
| > 8.40 | < 4.52 | 5.75 | CC[C@H](C(=O)Nc1cccc2c(-c3nc(Nc4cn(C)nc4C)ncc3F)c[nH]c12)N1CCN(C)CC1 [Example 49, (2R)-N-(3-{2-[(1,3-dimethyl-1H-pyrazol-4-yl)amino]-5-fluoropyrimidin-4-yl}-1H-indol-7-yl)-2-(4-methylpiperazin-1-yl)butanamide] |
| 6.58 | < 4.52 | 4.62 | CC[C@@H](C(=O)Nc1cccc2c(-c3nc(Nc4cn(C)nc4C)ncc3F)c[nH]c12)N1CCN(C)CC1 [Example 50, (2S)-N-(3-{2-[(1,3-dimethyl-1H-pyrazol-4-yl)amino]-5-fluoropyrimidin-4-yl}-1H-indol-7-yl)-2-(4-methylpiperazin-1-yl)butanamide] |
| > 8.52 | < 4.52 | 6.49 | COC[C@H](C(=O)Nc1cccc2c(-c3nc(Nc4cn(C)nc4C)ncc3F)c[nH]c12)N1CCN(C)CC1 [Example 53, (2R)-N-(3-{2-[(1,3-dimethyl-1H-pyrazol-4-yl)amino]-5-fluoropyimidin-4-yl}-1H-indol-7-yl)-3-methoxy-2-(4-methylpiperazin-1-yl)propanamide] |
| 5.78 | < 4.52 | < 4.52 | COC[C@@H](C(=O)Nc1cccc2c(-c3nc(Nc4cn(C)nc4C)ncc3F)c[nH]c12)N1CCN(C)CC1 [Example 54, (2S)-N-(3-{2-[(1,3-dimethyl-1H-pyrazol-4-yl)amino]-5-fluoropyrimidin-4-yl}-1H-indol-7-yl)-3-methoxy-2-(4-methylpiperazin-1-yl)propanamide] |
| 7.57 | < 4.52 | 5.37 | CCc1nn(C)cc1Nc1ncc(C)c(-c2c[nH]c3c(NC(=O)[C@@H](C)N4CCN(C)CC4)cccc23)n1 [Example 55, (2R)-N-(3-{2-[(3-ethyl-1-methyl-1H-pyrazol-4-yl)amino]-5-methylpyrimidin-4-yl}-1H-indol-7-yl)-2-(4-methylpiperazin-1-yl)propanamide] |
| 7.55 | < 4.52 | 5.29 | Cc1nn(C)cc1Nc1ncc(F)c(-c2c[nH]c3c(NC(=O)[C@@H](C)N4CCN(C)CC4)cccc23)n1 [Example 56, (2R)-N-(3-{2-[(1,3-dimethyl-1H-pyrazol-4-yl)amino]-5-fluoropyrimidin-4-yl}-1H-indol-7-yl)-2-(4-methylpiperazin-1-yl)propanamide] |
| 7.16 | < 4.52 | 5.03 | Cc1nn(C)cc1Nc1nccc(-c2c[nH]c3c(NC(=O)[C@@H](C)N4CCN(C)CC4)cccc23)n1 [Example 57, (2R)-N-(3-{2-[(1,3-dimethyl-1H-pyrazol-4-yl)amino]pyrimidin-4-yl}-1H-indol-7-yl)-2-(4-methylpiperazin-1-yl)propanamide] |
| 7.77 | < 4.52 | 5.05 | CCn1cc(Nc2ncc(C)c(-c3c[nH]c4c(NC(=O)[C@@H](C)N5CCN(C)CC5)cccc34)n2)c(OC)n1 [Example 58, (2R)-N-(3-{2-[(1-ethyl-3-methoxy-1H-pyrazol-4-yl)amino]-5-methylpyrimidin-4-yl}-1H-indol-7-yl)-2-(4-methylpiperazin-1-yl)propanamide] |
| 7.16 | < 4.52 | < 4.52 | CCOc1nn(CC)cc1Nc1ncc(C)c(-c2c[nH]c3c(NC(=O)[C@@H](C)N4CCN(C)CC4)cccc23)n1 [Example 59, (2R)-N-(3-{2-[(3-ethoxy-1-ethyl-1H-pyrazol-4-yl)amino]-5-methylpyrimidin-4-yl}-1H-indol-7-yl)-2-(4-methylpiperazin-1-yl)propanamide] |
| 8.40 | < 4.52 | 5.82 | COC[C@H](C(=O)Nc1cccc2c(-c3ccnc(Nc4cn(C)nc4OC)n3)c[nH]c12)N1CCN(C)CC1 [Example 60, (2R)-3-Methoxy-N-(3-{2-[(3-methoxy-1-methyl-1H-pyrazol-4-yl)amino]pyrimidin-4-yl}-1H-indol-7-yl)-2-(4-methylpiperazin-1-yl)propanamide] |
| 5.54 | < 4.52 | < 4.52 | COC[C@@H](C(=O)Nc1cccc2c(-c3ccnc(Nc4cn(C)nc4OC)n3)c[nH]c12)N1CCN(C)CC1 [Example 61, (2S)-3-Methoxy-N-(3-{2-[(3-methoxy-1-methyl-1H-pyrazol-4-yl)amino]pyrimidin-4-yl}-1H-indol-7-yl)-2-(4-methylpiperazin-1-yl)propanamide] |
| > 8.22 | < 4.52 | 5.30 | CCOc1nn(C)cc1Nc1ncc(C)c(-c2c[nH]c3c(NC(=O)[C@@H](CC)N4CCN(C)CC4)cccc23)n1 [Example 62, (2R)-N-(3-{2-[(3-ethoxy-1-methyl-1H-pyrazol-4-yl)amino]-5-methylpyrimidin-4-yl}-1H-indol-7-yl)-2-(4-methylpiperazin-1-yl)butanamide] |
| 6.72 | < 4.52 | < 4.52 | CCOc1nn(C)cc1Nc1ncc(C)c(-c2c[nH]c3c(NC(=O)[C@H](CC)N4CCN(C)CC4)cccc23)n1 [Example 63, (2S)-N-(3-{2-[(3-ethoxy-1-methyl-1H-pyrazol-4-yl)amino]-5-methylpyrimidin-4-yl}-1H-indol-7-yl)-2-(4-methylpiperazin-1-yl)butanamide] |
